Like-named read-outs stand apart in the source and are kept apart here.
Columns and labels:
Format in all cases: cell-based, human
[1] = tested on: A549 (Lung Adenocarcinoma); assay: Cell viability analysis, lung cancer A549; details: Homo sapiens, A549, 72 h
[2] = tested on: MCF7 (Mammary Gland, Adenocarcinoma); assay: Cell viability analysis, breast cancer MCF7; details: Homo sapiens, MCF7, 72 h
[3] = tested on: AGS (Gastric Adenocarcinoma); assay: Cell viability analysis, gastric cancer AGS; details: Homo sapiens, 72 h
[4] = tested on: U-2OS; assay: Cell viability analysis, osteosarcoma U-2OS; details: Homo sapiens, U2OS, 72 h, read-out: The results of antibiotic drug inhibiting cancer cell lines (cell viability analysis), U2OS
[5] = tested on: MDA-MB-231 (Mammary Gland, Adenocarcinoma); assay: Cell viability analysis, breast cancer MDA-MB-231; details: Homo sapiens, MDA-MB-231, 72 h, read-out: The results of antibiotic drug inhibiting cancer cell lines (cell viability analysis), MDA-MB231
[6] = tested on: TSGH-8301 (Urinary Bladder Carcinoma); assay: Cell viability analysis, bladder cancer TSGH-8301; details: Homo sapiens, 72 h
[7] = tested on: C-33A (Cervical carcinoma); assay: Cell viability analysis, cervical cancer C-33A; details: Homo sapiens, C-33-A, 72 h, read-out: The results of antibiotic drug inhibiting cancer cell lines (cell viability analysis), C-33A
[8] = tested on: HepG2 (Hepatocellular Carcinoma); assay: Cell viability analysis, hepatic cancer HepG2; details: Homo sapiens, HepG2, 72 h
[9] = tested on: HeLa (Cervix Adenocarcinoma); assay: Cell viability analysis, cervical cancer HeLa; details: Homo sapiens, HeLa, 72 h
[10] = tested on: A375 (Amelanotic Melanoma); assay: Cell viability analysis, skin cancer A375; details: Homo sapiens, A-375, 72 h
[11] = tested on: AsPC-1; assay: Cell viability analysis, pancreatic cancer AsPC-1; details: Homo sapiens, ASPC1, 72 h, read-out: The results of antibiotic drug inhibiting cancer cell lines (cell viability analysis), AsPC-1
[12] = tested on: cancer cell lines; assay: Cell viability analysis (WST-1) on cancer cell lines; details: drug 10 μM, 72 hours, WST-1; Table 3
[13] = tested on: BCC (basal cell carcinoma); assay: Cell viability analysis, skin cancer BCC; details: Homo sapiens, 72 h, read-out: The results of antibiotic drug inhibiting cancer cell lines (cell viability analysis), BCC
[14] = tested on: Hep3B (hepatocellular carcinoma); assay: Cell viability analysis, hepatic cancer Hep3B; details: Homo sapiens, Hep3B, 72 h, read-out: The results of antibiotic drug inhibiting cancer cell lines (cell viability analysis), Hep3B
[15] = tested on: PC3 (p53−) (Prostate Adenocarcinoma); assay: Cell viability analysis, prostate cancer PC3; details: Homo sapiens, 72 h
[16] = tested on: 786-O (Renal adenocarcinoma); assay: Cell viability analysis, renal cancer 786-O; details: Homo sapiens, 786-0, 72 h, read-out: The results of antibiotic drug inhibiting cancer cell lines (cell viability analysis), 786-O
[17] = tested on: MKN-45 (Gastric Adenocarcinoma); assay: Cell viability analysis, gastric cancer MKN-45; details: Homo sapiens, MKN-45, 72 h
[18] = tested on: NIH: OVCAR-3; assay: Cell viability analysis, ovarian cancer NIH: OVCAR-3; details: Homo sapiens, OVCAR-3, 72 h, read-out: The results of antibiotic drug inhibiting cancer cell lines (cell viability analysis), NIH-OVCAR-3
[19] = tested on: SAS (Tongue squamous cell carcinoma); assay: Cell viability analysis, tongue cancer SAS; details: Homo sapiens, 72 h, read-out: The results of antibiotic drug inhibiting cancer cell lines (cell viability analysis), SAS
[20] = tested on: BxPC-3; assay: Cell viability analysis, pancreatic cancer BxPC-3; details: Homo sapiens, BXPC-3, 72 h, read-out: The results of antibiotic drug inhibiting cancer cell lines (cell viability analysis), BxPC-3
[21] = tested on: T24; assay: Cell viability analysis, bladder cancer T24; details: Homo sapiens, T-24, 72 h, read-out: The results of antibiotic drug inhibiting cancer cell lines (cell viability analysis), T24
[22] = tested on: TOV-21G; assay: Cell viability analysis, ovarian cancer TOV-21G; details: Homo sapiens, TOV21G, 72 h, read-out: The results of antibiotic drug inhibiting cancer cell lines (cell viability analysis), TOV-21G
[23] = tested on: HL-60 (Acute Promyelocytic Leukemia); assay: Cell viability analysis, leukemia HL-60; details: Homo sapiens, HL-60, 72 h, read-out: cell viability (survival rate), HL-60, drug 10 μM, 72 hours, WST-1, OD450 nm
[24] = tested on: HI650 (Lung Adenocarcinoma); assay: Cell viability analysis, lung cancer HI650; details: Homo sapiens, NCI-H1650, 72 h

CO[C@H]1/C=C/O[C@@]2(C)Oc3c(C)c(O)c4c(O)c(c5c(nc6cc(C)ccn65)c4c3C2=O)NC(=O)/C(C)=C\C=C\[C@H](C)[C@H](O)[C@@H](C)[C@@H](O)[C@@H](C)[C@H](OC(C)=O)[C@@H]1C [Rifaximin (Xifaxan), Rifaximin]
viability at 10 µM ([1]; read-out: The results of antibiotic drug inhibiting cancer cell lines (cell viability analysis), A549, A549, repeated experiment): 108% | viability at 10 µM ([1]; read-out: cell viability (survival rate), A549, drug 10 μM, 72 hours, WST-1, OD450 nm): 35.1% | viability at 10 µM ([2]; read-out: The results of antibiotic drug inhibiting cancer cell lines (cell viability analysis), MCF-7, MCF-7, repeated experiment): 89.9% | viability at 10 µM ([2]; read-out: cell viability (survival rate), MCF7, drug 10 μM, 72 hours, WST-1, OD450 nm): 40.1% | viability at 10 µM ([3]; read-out: The results of antibiotic drug inhibiting cancer cell lines (cell viability analysis), AGS, repeated experiment): 98.1% | viability at 10 µM ([3]; read-out: cell viability (survival rate), AGS, drug 10 μM, 72 hours, WST-1, OD450 nm): 93.2% | viability at 10 µM [4]: 72.9% | viability at 10 µM [5]: 98.7% | viability at 10 µM ([6]; read-out: The results of antibiotic drug inhibiting cancer cell lines (cell viability analysis), TSGH-8301, TSGH-8301, repeated experiment): 114% | viability at 10 µM ([6]; read-out: cell viability (survival rate), TSGH, drug 10 μM, 72 hours, WST-1, OD450 nm): 61.3% | viability at 10 µM [7]: 107% | viability at 10 µM ([8]; read-out: The results of antibiotic drug inhibiting cancer cell lines (cell viability analysis), HepG2, HepG2, repeated experiment): 115% | viability at 10 µM ([8]; read-out: cell viability (survival rate), HepG2, drug 10 μM, 72 hours, WST-1, OD450 nm): 102% | viability at 10 µM ([9]; read-out: The results of antibiotic drug inhibiting cancer cell lines (cell viability analysis), HeLa, repeated experiment): 106% | viability at 10 µM ([9]; read-out: cell viability (survival rate), HeLa, drug 10 μM, 72 hours, WST-1, OD450 nm): 54% | viability at 10 µM ([10]; read-out: The results of antibiotic drug inhibiting cancer cell lines (cell viability analysis), A375, A375, repeated experiment): 98.2% | viability at 10 µM ([10]; read-out: cell viability (survival rate), A375, drug 10 μM, 72 hours, WST-1, OD450 nm): 59.5% | viability at 10 µM [11]: 71.2% | inhibition effect on different cancer cell lines [12]: significant inhibition effect | viability at 10 µM [13]: 81.8% | viability at 10 µM [14]: 110% | viability at 10 µM ([15]; read-out: The results of antibiotic drug inhibiting cancer cell lines (cell viability analysis), PC-3, PC-3, repeated experiment): 95.3% | viability at 10 µM ([15]; read-out: cell viability (survival rate), PC3, drug 10 μM, 72 hours, WST-1, OD450 nm): 67.1% | viability at 10 µM [16]: 87.6% | viability at 10 µM ([17]; read-out: The results of antibiotic drug inhibiting cancer cell lines (cell viability analysis), MKN-45, MKN-45, repeated experiment): 93.5% | viability at 10 µM ([17]; read-out: cell viability (survival rate), MKN-45, drug 10 μM, 72 hours, WST-1, OD450 nm): 52.7% | viability at 10 µM [18]: 100% | viability at 10 µM [19]: 69.8% | viability at 10 µM [20]: 89% | viability at 10 µM [21]: 96.8% | viability at 10 µM [22]: 88% | viability at 10 µM [23]: 100% | viability at 10 µM ([24]; read-out: The results of antibiotic drug inhibiting cancer cell lines (cell viability analysis), H1650, H1650, repeated experiment): 69.5% | viability at 10 µM ([24]; read-out: cell viability (survival rate), H1650, drug 10 μM, 72 hours, WST-1, OD450 nm): 82.4%

From patent publication US10105357B2, “Indication of antibiotic drugs for preparation of cancer inhibition pharmaceutical composition” (LAUNX BIOMEDICAL CO., LTD., priority 2014, dated 2018)
